Patent US10793542B2, “Hetroarylamine compounds for modulating the hedgehog pathway and preparing method and uses thereof” (DEVELOPMENT CENTER FOR BIOTECHNOLOGY, priority 2016, dated 2020)

Legend:
Assay type in all cases: cell-based
Smo wild type = biological target: T1, Smo wild type (Homo sapiens, UniProt Q99835); experiment: Reporter assay of C3H10T1/2-Gli-Luc cells transfected with wild-type Smo, without SAG; settings: C3H10T1/2 cells transfected with pLPCX-SMO, no SAG, 48 hr; read-out: Inhibition of C3H10T1/2-Gli-Luc-Smo-WT [IC50
T1 construct: expressed in transfected cells; host or cells: C3H10T1/2 cells (ATCC CCL-226), transient transfection with pLPCX-SMO
Outline: (§1)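 C3H10T1/2-Gli-Luc cells transiently transfected with wild-type or D473H SMO, replated in 0.5% FBS RPMI and incubated with compounds 48 h at 37 °C without SAG. Dual-luciferase, firefly normalized to Renilla; scaled to DMSO (100%) and 10 μM ALLO-2 (0%); IC50 by nonlinear regression.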

Smo D473H mutant = biological target: T2, Smo D473H mutant (Homo sapiens, UniProt Q99835, D473H); experiment: Reporter assay of C3H10T1/2-Gli-Luc cells transfected with Smo D473H mutant, without SAG; settings: C3H10T1/2 cells transfected with pLPCX-SMO-D473H, no SAG, 48 hr; read-out: Inhibition of C3H10T1/2-Gli-Luc-Smo-D473H [IC50
T2 construct: expressed in transfected cells; host or cells: C3H10T1/2 cells (ATCC CCL-226), transient transfection with pLPCX-SMO-D473H
Outline: as §1

[1] = tested on: hedgehog pathway (pGL3-7xGli-Luciferase reporter in C3H10T1/2 cells); experiment: Transient transfection of C3H10T1/2 and Gli-Luc reporter assay with SAG stimulation; settings: Mus musculus, C3H 10T1/2, SAG 20 nM, 48 hr, read-out: Inhibition of Gli-Luc expression [IC50
Outline: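 C3H10T1/2 cells were transiently transfected with a 7xGli-firefly luciferase reporter and a TK-Renilla control, then treated with serially diluted compounds plus 20 nM SAG in 0.5% FBS for 48 h at 37 °C. Firefly signal was normalized to Renilla and scaled between DMSO with SAG (100%) and without SAG (0%). IC50 was obtained by nonlinear regression.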

T1 sequence (Q99835 28-787): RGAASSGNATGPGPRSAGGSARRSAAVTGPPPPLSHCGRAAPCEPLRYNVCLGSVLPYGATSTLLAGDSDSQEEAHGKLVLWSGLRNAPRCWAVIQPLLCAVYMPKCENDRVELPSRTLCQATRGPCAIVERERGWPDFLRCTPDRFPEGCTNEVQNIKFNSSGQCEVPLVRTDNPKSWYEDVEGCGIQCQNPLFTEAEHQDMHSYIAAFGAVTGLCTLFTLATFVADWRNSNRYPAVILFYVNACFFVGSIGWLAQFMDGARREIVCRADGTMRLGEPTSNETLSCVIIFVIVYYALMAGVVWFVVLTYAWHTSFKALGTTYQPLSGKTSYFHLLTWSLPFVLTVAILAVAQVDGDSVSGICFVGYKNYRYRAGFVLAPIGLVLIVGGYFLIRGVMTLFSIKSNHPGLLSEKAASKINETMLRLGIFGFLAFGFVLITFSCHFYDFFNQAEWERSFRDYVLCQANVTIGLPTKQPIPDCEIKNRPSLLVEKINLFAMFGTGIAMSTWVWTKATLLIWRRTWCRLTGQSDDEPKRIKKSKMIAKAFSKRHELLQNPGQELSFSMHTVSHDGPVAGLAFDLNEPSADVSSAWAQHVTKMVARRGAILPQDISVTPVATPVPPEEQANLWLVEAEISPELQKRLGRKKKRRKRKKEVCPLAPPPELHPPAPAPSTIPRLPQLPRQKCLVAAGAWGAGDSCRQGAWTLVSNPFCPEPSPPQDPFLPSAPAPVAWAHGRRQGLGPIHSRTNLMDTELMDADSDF
T2 sequence (Q99835 28-787 D473H): as the sequence (Q99835 28-787) above, with D446H counted along it

IC50 (Smo wild type) [nM]	IC50 (Smo D473H mutant) [nM]	IC50 [1] [nM]	SMILES
< 100	100 to 1000	< 100	CSc1cnc(Nc2ccc(C(=O)Nc3cc(CN4CCN(C)CC4)ccc3C)cc2)cc1-c1ccc(C(F)(F)F)cc1 [Compound 90, N-(2-methyl-5-((4-methylpiperazin-1-yl)methyl)phenyl)-4-((5-(methylthio)-4-(4-(trifluoromethyl)phenyl)pyridin-2-yl)amino)benzamide]
< 100	< 100	< 100	CNc1cnc(Nc2ccc(C(=O)Nc3cc(CN4CCOCC4)ccc3C)cc2)nc1-c1ccc(OC(F)(F)F)cc1 [Compound 91, N-(2-methyl-5-(morpholinomethyl)phenyl)-4-((5-(methylamino)-4-(4-(trifluoromethoxy)phenyl)pyrimidin-2-yl)amino)benzamide]
